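These data come from cells grown in 96-well plates and exposed to compound for 48 hours at five concentrations. At the GI50, growth is halved.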 Active and inactive are the calls of the source. Cut-off read from the data, not from the text of the source: active = GI50 up to about 1.1 µM and inactive = higher.
Columns and labels:
Test in all cases: DTP human tumour cell line panel, 48 h
[1] = system: HCT-116
[2] = system: K562
[3] = system: CCRF-CEM
[4] = system: MDA-N
[5] = system: SNB-19
[6] = system: M14
[7] = system: HL-60
[8] = system: NCI-H460
[9] = system: UACC-62
[10] = system: OVCAR-8
[11] = system: SN12C
[12] = system: RPMI-8226
[13] = system: PC-3
[14] = system: BT-549
[15] = system: OVCAR-4
[16] = system: DU-145
[17] = system: MCF7
[18] = system: TK-10
[19] = system: LOX IMVI
[20] = system: EKVX

Structure (SMILES): CC1=C(C(=O)Nc2ccccc2)C(c2ccc(C)o2)C(C#N)=C(SCc2ccccc2)N1 (configuration not stated)
- GI50 [1]: 33.3 µM (inactive)
- GI50 [2]: 14.4 µM (inactive)
- GI50 [3]: 13.2 µM (inactive)
- GI50 [4]: 5.38 µM (inactive)
- GI50 [5]: > 100 µM (inactive)
- GI50 [6]: > 100 µM (inactive)
- GI50 [7]: 17.7 µM (inactive)
- GI50 [8]: > 100 µM (inactive)
- GI50 [9]: 18.9 µM (inactive)
- GI50 [10]: > 100 µM (inactive)
- GI50 [11]: > 100 µM (inactive)
- GI50 [12]: 25.1 µM (inactive)
- GI50 [13]: > 55.8 µM (inactive)
- GI50 [14]: 43.4 µM (inactive)
- GI50 [15]: > 72.3 µM (inactive)
- GI50 [16]: > 100 µM (inactive)
- GI50 [17]: 19.8 µM (inactive)
- GI50 [18]: > 65.3 µM (inactive)
- GI50 [19]: > 100 µM (inactive)
- GI50 [20]: > 84.3 µM (inactive)

Structure (SMILES): N#Cc1cc2cc3c4c(c2oc1=O)CCCN4CCC3
- GI50 [1]: > 100 µM (inactive)
- GI50 [2]: > 100 µM (inactive)
- GI50 [3]: > 100 µM (inactive)
- GI50 [4]: > 100 µM (inactive)
- GI50 [5]: > 100 µM (inactive)
- GI50 [6]: > 100 µM (inactive)
- GI50 [7]: > 100 µM (inactive)
- GI50 [8]: > 100 µM (inactive)
- GI50 [9]: > 100 µM (inactive)
- GI50 [10]: > 100 µM (inactive)
- GI50 [11]: > 100 µM (inactive)
- GI50 [12]: > 100 µM (inactive)
- GI50 [13]: > 100 µM (inactive)
- GI50 [14]: > 100 µM (inactive)
- GI50 [15]: > 100 µM (inactive)
- GI50 [16]: > 100 µM (inactive)
- GI50 [17]: > 100 µM (inactive)
- GI50 [18]: > 100 µM (inactive)
- GI50 [19]: > 100 µM (inactive)
- GI50 [20]: 5.02 µM (inactive)

Structure (SMILES): CCCCCCCCCCCCCCCCOP(=O)(O)OCC(NC(C)=O)C(=O)O (configuration not stated)
- GI50 [1]: 36.4 µM (inactive)
- GI50 [2]: > 100 µM (inactive)
- GI50 [4]: 54.2 µM (inactive)
- GI50 [5]: 18.7 µM (inactive)
- GI50 [6]: > 100 µM (inactive)
- GI50 [7]: 43.8 µM (inactive)
- GI50 [8]: 39.1 µM (inactive)
- GI50 [10]: > 100 µM (inactive)
- GI50 [11]: 42.6 µM (inactive)
- GI50 [12]: 41.7 µM (inactive)
- GI50 [13]: 18 µM (inactive)
- GI50 [14]: 18.8 µM (inactive)
- GI50 [15]: 25.9 µM (inactive)
- GI50 [16]: > 100 µM (inactive)
- GI50 [17]: > 100 µM (inactive)
- GI50 [18]: 23.7 µM (inactive)
- GI50 [19]: > 100 µM (inactive)
- GI50 [20]: > 100 µM (inactive)

Structure (SMILES): COc1cccc(C2C3=C(COC3=O)Oc3cc4c(cc32)OCO4)c1 (configuration not stated)
- GI50 [1]: 0.0264 µM (active)
- GI50 [2]: < 0.0135 µM (active)
- GI50 [3]: 0.0192 µM (active)
- GI50 [4]: < 0.01 µM (active)
- GI50 [5]: 0.187 µM (active)
- GI50 [6]: 0.0307 µM (active)
- GI50 [7]: < 0.0146 µM (active)
- GI50 [8]: 0.0267 µM (active)
- GI50 [9]: 0.0134 µM (active)
- GI50 [10]: 0.0421 µM (active)
- GI50 [11]: 0.078 µM (active)
- GI50 [12]: 0.0156 µM (active)
- GI50 [13]: 0.0196 µM (active)
- GI50 [14]: > 100 µM (inactive)
- GI50 [15]: 0.424 µM (active)
- GI50 [16]: 0.0375 µM (active)
- GI50 [17]: 0.0246 µM (active)
- GI50 [18]: 0.0766 µM (active)
- GI50 [19]: < 0.0155 µM (active)
- GI50 [20]: 0.177 µM (active)

Structure (SMILES): C(=C\c1ccccc1)/COc1ccccc1C(N1CCOCC1)n1nc2ccccc2n1 (configuration not stated)
- GI50 [1]: 5.31 µM (inactive)
- GI50 [2]: 1.19 µM (inactive)
- GI50 [3]: 1.88 µM (inactive)
- GI50 [4]: 0.621 µM (active)
- GI50 [5]: 19.2 µM (inactive)
- GI50 [6]: 2.58 µM (inactive)
- GI50 [7]: 0.352 µM (active)
- GI50 [8]: 15.4 µM (inactive)
- GI50 [9]: 3 µM (inactive)
- GI50 [10]: 3.5 µM (inactive)
- GI50 [11]: 5.6 µM (inactive)
- GI50 [12]: 2.92 µM (inactive)
- GI50 [13]: 2.59 µM (inactive)
- GI50 [14]: 7.55 µM (inactive)
- GI50 [15]: 12.2 µM (inactive)
- GI50 [16]: 5.85 µM (inactive)
- GI50 [17]: 1.4 µM (inactive)
- GI50 [18]: 6.98 µM (inactive)
- GI50 [19]: 2.9 µM (inactive)
- GI50 [20]: 21.2 µM (inactive)

Structure (SMILES): C/C(=N\N=C(/S)N1CC2CCC(CC2)C1)c1ccncn1
- GI50 [1]: < 0.01 µM (active)
- GI50 [2]: < 0.01 µM (active)
- GI50 [3]: < 0.01 µM (active)
- GI50 [4]: 0.189 µM (active)
- GI50 [5]: 0.198 µM (active)
- GI50 [6]: < 0.01 µM (active)
- GI50 [7]: < 0.01 µM (active)
- GI50 [8]: < 0.01 µM (active)
- GI50 [9]: < 0.01 µM (active)
- GI50 [10]: < 0.01 µM (active)
- GI50 [11]: 0.0152 µM (active)
- GI50 [12]: < 0.01 µM (active)
- GI50 [13]: < 0.01 µM (active)
- GI50 [14]: 0.0512 µM (active)
- GI50 [15]: 0.741 µM (active)
- GI50 [16]: 0.309 µM (active)
- GI50 [17]: < 0.01 µM (active)
- GI50 [18]: < 0.01 µM (active)
- GI50 [19]: < 0.01 µM (active)
- GI50 [20]: < 0.01 µM (active)

Structure (SMILES): Cc1cc(=O)oc2cc(O)ccc12 [HYMECROMONE]
- GI50 [1]: > 100 µM (inactive)
- GI50 [2]: > 100 µM (inactive)
- GI50 [3]: > 100 µM (inactive)
- GI50 [4]: > 100 µM (inactive)
- GI50 [5]: > 100 µM (inactive)
- GI50 [7]: > 100 µM (inactive)
- GI50 [8]: > 100 µM (inactive)
- GI50 [9]: > 100 µM (inactive)
- GI50 [10]: > 100 µM (inactive)
- GI50 [11]: > 100 µM (inactive)
- GI50 [12]: > 100 µM (inactive)
- GI50 [13]: > 100 µM (inactive)
- GI50 [14]: 88.3 µM (inactive)
- GI50 [15]: > 100 µM (inactive)
- GI50 [16]: > 100 µM (inactive)
- GI50 [17]: > 100 µM (inactive)
- GI50 [18]: > 100 µM (inactive)
- GI50 [19]: > 100 µM (inactive)
- GI50 [20]: > 100 µM (inactive)

From ChEMBL document CHEMBL1201862, “PubChem BioAssay data set” (2004)
